Data published in patent US20230146507A1, “N-PHENYL-3-MERCAPTOPROPANAMIDE DERIVATIVES AS METALLO-BETA-LACTAMASE INHIBITORS FOR THE TREATMENT OF BACTERIAL INFECTIONS” (Helmholtz-Zentrum Für Infektionsforschung GmbH, priority 2020, published 2023).

Tests used:
IMP-7 = IMP-7 (Pseudomonas aeruginosa, UniProt Q93AU3); assay: In vitro inhibition assay (kinetic fluorescence-based activity assay), IMP-7; assay type: biochemical; details: Means and SD of at least two independent experiments
Procedure: (§1) Protein expression and purification. The expression of IMP-7, VIM-1, and NDM-1 was performed according to the protocol previously published by Klingler et al. (Klingler, F. M.; Wichelhaus, T. A.; Frank, D.; Cuesta-Bernal, J.; El-Delik, J.; Müller, H. F.; Sjuts, H.; Gottig, S.; Koenigs, A.; Pos, K. M.; et al. Approved Drugs Containing Thiols as Inhibitors of Metallo-β-Lactamases: Strategy to Combat Multidrug-Resistant Bacteria. J. Med. Chem. 2015, 58 (8), 3626-3630. https://doi.org/10.1021/jm501844d) with slight modifications.
(§2) In vitro inhibition assay. Activity assays for NDM-1, VIM-1, VIM-2 and IMP-7 were carried out, as described by Klingler et al. Final protein concentrations were 0.5 nM (NDM-1), 4.0 nM (VIM-1), and 0.1 nM (IMP-7) in a 50 mM HEPES buffer (pH 7.5, 0.01% Triton X-100) Substrate (Fluorocillin™ (Invitrogen, Darmstadt, Germany) was dissolved in assay buffer to a final concentration of 888 nM. Test compounds were dissolved and pre-diluted in DMSO (final concentration: 1%). In a black polystyrol 96-well plate (Corning) an amount of […] of the respective inhibitor solution at different concentrations was incubated with […] of respective protein containing buffer for 30 minutes at room temperature. […] of substrate solution was added. The readout of the emitted fluorescence was started immediately (45 s for 30 cycles) using a Tecan Infinite F200Pro (Tecan Group Ltd; excitation at 495 nm and emission at 525 nm). Blank controls were performed without enzyme. Positive controls were performed with enzyme but without inhibitor. The inhibitory activity of each test compound was measured in three independent experiments. For calculation of IC50 values, data obtained from measurements with eight different inhibitor concentrations were used. For the evaluation of the sigmoidal dose response equation (variable slope with four parameters) GraphPad Prism 5 (GraphPad Software, La Jolla, Calif., USA) was used.

NDM-1 = target: T1, NDM-1 (Klebsiella pneumoniae, UniProt C7C422); assay: In vitro inhibition assay (kinetic fluorescence-based activity assay), NDM-1; assay type: biochemical; details: Means and SD of at least two independent experiments
T1 construct: made in house
Procedure: as §1, §2

VIM-1 = target: T2, VIM-1 (Pseudomonas aeruginosa, UniProt A0A0F7KYQ8); assay: In vitro inhibition assay (kinetic fluorescence-based activity assay), VIM-1; assay type: biochemical; details: Means and SD of at least two independent experiments
T2 construct: made in house
Procedure: as §1, §2

[1] = tested on: different isolates from E. coli and P. aeruginosa; assay: MIC assay, intrinsic antibacterial activity; assay type: cell-based; details: compound alone
E. coli IMP-1 (T2360) = assay: Checkerboard assay with imipenem, E. coli IMP-1 (T2360); assay type: cell-based
Procedure: (§3) Fractional inhibitory concentration index (FICI). The checkerboard assay was performed to test for synergy in vitro. […] FICIs≤0.5 were defined as synergistic; FICIs from >0.5 to […] were defined as additive; FICIs from 1 to ≤4 were defined as indifferent and FICIs>4 were defined as antagonistic (Doern, C. D. When Does 2 plus 2 Equal 5? A Review of Antimicrobial Synergy Testing. J. Clin. Microbial. 2014, 52 (12), 4124-4128. https://doi.org/10.1128/JCM.01121-14).

E. coli VIM-1 (T2544) = assay: Checkerboard assay with imipenem, E. coli VIM-1 (T2544); assay type: cell-based
Procedure: as §3

E. coli NDM-1 (T2359) = assay: Checkerboard assay with imipenem, E. coli NDM-1 (T2359); assay type: cell-based; details: Table 6
Procedure: as §3

T1 sequence (C7C422 29-270, looked up, species assumed): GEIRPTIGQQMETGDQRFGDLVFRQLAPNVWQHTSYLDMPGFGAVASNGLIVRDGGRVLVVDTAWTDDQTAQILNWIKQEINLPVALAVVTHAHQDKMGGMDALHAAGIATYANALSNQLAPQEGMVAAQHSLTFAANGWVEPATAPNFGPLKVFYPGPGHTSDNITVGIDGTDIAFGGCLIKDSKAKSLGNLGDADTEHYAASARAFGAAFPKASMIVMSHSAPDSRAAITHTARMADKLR
Sequence of IMP-7 (Q93AU3 entry or part of it): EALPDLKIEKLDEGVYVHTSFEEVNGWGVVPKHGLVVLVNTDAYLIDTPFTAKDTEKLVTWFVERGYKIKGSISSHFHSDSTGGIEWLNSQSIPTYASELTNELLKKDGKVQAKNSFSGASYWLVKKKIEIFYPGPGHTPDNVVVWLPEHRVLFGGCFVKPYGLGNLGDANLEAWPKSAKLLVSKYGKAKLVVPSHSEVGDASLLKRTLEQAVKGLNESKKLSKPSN

IC50 (IMP-7) | IC50 (NDM-1) | IC50 (VIM-1) | Compound | intrinsic antibacterial activity (MIC) [1] | Imipenem MIC (E. coli IMP-1 (T2360); +2 mg/L compound) | Imipenem MIC (E. coli IMP-1 (T2360); +4 mg/L compound) | Imipenem MIC (E. coli IMP-1 (T2360); +8 mg/L compound) | Imipenem MIC (E. coli IMP-1 (T2360); +16 mg/L compound) | Imipenem MIC (E. coli IMP-1 (T2360); +32 mg/L compound) | Imipenem MIC (E. coli IMP-1 (T2360); +64 mg/L compound) | Imipenem MIC (E. coli IMP-1 (T2360); +128 mg/L compound) | Imipenem MIC (E. coli VIM-1 (T2544); +2 mg/L compound) | Imipenem MIC (E. coli VIM-1 (T2544); +4 mg/L compound) | Imipenem MIC (E. coli VIM-1 (T2544); +8 mg/L compound) | Imipenem MIC (E. coli VIM-1 (T2544); +16 mg/L compound) | Imipenem MIC (E. coli VIM-1 (T2544); +32 mg/L compound) | Imipenem MIC (E. coli VIM-1 (T2544); +64 mg/L compound) | Imipenem MIC (E. coli VIM-1 (T2544); +128 mg/L compound) | Imipenem MIC (E. coli NDM-1 (T2359); +2 mg/L compound) | Imipenem MIC (E. coli NDM-1 (T2359); +4 mg/L compound) | further results
2.6 ± 0.1 µM | 2.5 ± 0.2 µM | 0.1 µM | O=C(CCS)Nc1cccc([N+](=O)[O-])c1 [HIPS5662] | – | – | – | – | – | – | – | – | – | – | – | – | – | – | – | – | – | –
5.5 ± 0.7 µM | 6.5 ± 0.4 µM | 0.8 ± 0.1 µM | CCN(CC)Cc1cccc(NC(=O)CCS)c1 [HIPS5664] | – | – | – | – | – | – | – | – | – | – | – | – | – | – | – | – | – | –
2.1 ± 0.2 µM | 2.8 ± 0.1 µM | 0.8 µM | CN(C)S(=O)(=O)c1ccc(NC(=O)CCS)cc1 [HIPS5665] | – | – | – | – | – | – | – | – | – | – | – | – | – | – | – | – | – | –
2.1 ± 0.3 µM | 6.5 ± 0.5 µM | 0.5 µM | Nc1ccc(NC(=O)CCS)cc1 [HIPS5666] | – | – | – | – | – | – | – | – | – | – | – | – | – | – | – | – | – | –
5.8 ± 0.4 µM | 6.4 ± 0.6 µM | 1.5 ± 0.1 µM | CN1CCN(Cc2ccc(NC(=O)CCS)cc2)CC1 [HIPS5696] | – | – | – | – | – | – | – | – | – | – | – | – | – | – | – | – | – | –

Compound | IC50 (IMP-7) | IC50 (NDM-1) | IC50 (VIM-1) | intrinsic antibacterial activity (MIC) [1] | Imipenem MIC (E. coli IMP-1 (T2360); +2 mg/L compound) | Imipenem MIC (E. coli IMP-1 (T2360); +4 mg/L compound) | Imipenem MIC (E. coli IMP-1 (T2360); +8 mg/L compound) | Imipenem MIC (E. coli IMP-1 (T2360); +16 mg/L compound) | Imipenem MIC (E. coli IMP-1 (T2360); +32 mg/L compound) | Imipenem MIC (E. coli IMP-1 (T2360); +64 mg/L compound) | Imipenem MIC (E. coli IMP-1 (T2360); +128 mg/L compound) | Imipenem MIC (E. coli VIM-1 (T2544); +2 mg/L compound) | Imipenem MIC (E. coli VIM-1 (T2544); +4 mg/L compound) | Imipenem MIC (E. coli VIM-1 (T2544); +8 mg/L compound) | Imipenem MIC (E. coli VIM-1 (T2544); +16 mg/L compound) | Imipenem MIC (E. coli VIM-1 (T2544); +32 mg/L compound) | Imipenem MIC (E. coli VIM-1 (T2544); +64 mg/L compound) | Imipenem MIC (E. coli VIM-1 (T2544); +128 mg/L compound) | Imipenem MIC (E. coli NDM-1 (T2359); +2 mg/L compound) | Imipenem MIC (E. coli NDM-1 (T2359); +4 mg/L compound) | further results
O=C(CCS)Nc1cccc(S(=O)(=O)O)c1 [HIPS5672] | 3.6 ± 0.3 µM | 1.3 µM | 1.6 ± 0.1 µM | no intrinsic antibacterial activity | 2 µg/mL | 2 µg/mL | 2 µg/mL | 1 µg/mL | 1 µg/mL | 1 µg/mL | 0.5 µg/mL | 64 µg/mL | 64 µg/mL | 64 µg/mL | 32 µg/mL | 32 µg/mL | 8 µg/mL | 4 µg/mL | 128 µg/mL | 128 µg/mL | Imipenem MIC (E. coli NDM-1 (T2359); +8 mg/L compound): 128 µg/mL; Imipenem MIC (E. coli NDM-1 (T2359); +16 mg/L compound): 128 µg/mL; Imipenem MIC (E. coli NDM-1 (T2359); +32 mg/L compound): 128 µg/mL; Imipenem MIC (E. coli NDM-1 (T2359); +64 mg/L compound): 32 µg/mL; Imipenem MIC (E. coli NDM-1 (T2359); +128 mg/L compound): 2 µg/mL
NC(=O)NS(=O)(=O)c1ccc(NC(=O)CCS)cc1 [HIPS5682] | 12.6 ± 2.8 µM | 8.6 ± 0.2 µM | 2 ± 0.1 µM | no intrinsic antibacterial activity | 2 µg/mL | 2 µg/mL | 2 µg/mL | 1 µg/mL | 1 µg/mL | 1 µg/mL | 1 µg/mL | 32 µg/mL | 32 µg/mL | 32 µg/mL | 32 µg/mL | 16 µg/mL | 8 µg/mL | 2 µg/mL | 128 µg/mL | 128 µg/mL | Imipenem MIC (E. coli NDM-1 (T2359); +8 mg/L compound): 128 µg/mL; Imipenem MIC (E. coli NDM-1 (T2359); +16 mg/L compound): 128 µg/mL; Imipenem MIC (E. coli NDM-1 (T2359); +32 mg/L compound): 128 µg/mL; Imipenem MIC (E. coli NDM-1 (T2359); +64 mg/L compound): 64 µg/mL; Imipenem MIC (E. coli NDM-1 (T2359); +128 mg/L compound): 16 µg/mL
N=C(N)NS(=O)(=O)c1ccc(NC(=O)CCS)cc1 [HIPS5683] | 3.3 ± 0.4 µM | 2.1 ± 0.1 µM | 0.5 µM | no intrinsic antibacterial activity | 2 µg/mL | 1 µg/mL | 1 µg/mL | 1 µg/mL | 1 µg/mL | 1 µg/mL | 0.5 µg/mL | 32 µg/mL | 32 µg/mL | 32 µg/mL | 32 µg/mL | 16 µg/mL | 8 µg/mL | 2 µg/mL | 128 µg/mL | 128 µg/mL | Imipenem MIC (E. coli NDM-1 (T2359); +8 mg/L compound): 128 µg/mL; Imipenem MIC (E. coli NDM-1 (T2359); +16 mg/L compound): 128 µg/mL; Imipenem MIC (E. coli NDM-1 (T2359); +32 mg/L compound): 128 µg/mL; Imipenem MIC (E. coli NDM-1 (T2359); +64 mg/L compound): 64 µg/mL; Imipenem MIC (E. coli NDM-1 (T2359); +128 mg/L compound): 16 µg/mL
O=C(CCS)Nc1ccc(C(=O)O)cc1 [HIPS5695] | – | 1 ± 0.4 µM | 0.6 µM | no intrinsic antibacterial activity | 2 µg/mL | 2 µg/mL | 2 µg/mL | 1 µg/mL | 1 µg/mL | 0.5 µg/mL | 0.5 µg/mL | 16 µg/mL | 16 µg/mL | 16 µg/mL | 16 µg/mL | 4 µg/mL | 2 µg/mL | 1 µg/mL | 128 µg/mL | 128 µg/mL | IC50 (μM) IMP-7 (IMP-7): n.i.; Imipenem MIC (E. coli NDM-1 (T2359); +8 mg/L compound): 128 µg/mL; Imipenem MIC (E. coli NDM-1 (T2359); +16 mg/L compound): 128 µg/mL; Imipenem MIC (E. coli NDM-1 (T2359); +32 mg/L compound): 128 µg/mL; Imipenem MIC (E. coli NDM-1 (T2359); +64 mg/L compound): 32 µg/mL; Imipenem MIC (E. coli NDM-1 (T2359); +128 mg/L compound): 8 µg/mL
